The source of these data is patent US8017557B2, “Benzodioxole derivatives as modulators of proteolytic activity in plants” (Endura S.p.A., priority 2002, dated 2011).

The subject of this test is endopeptidase activity in cotton leaves. Briefly: Radial Diffusion Assay (RDA) of endopeptidase activity in cotton plants. In kind it is in vivo, cotton (cv. Sicala V2i). To be noted: for Endopeptidase activity, cv. V2i Bt PBO: U = trypsin equivalents. How it is done: The […] of the clear zone produced by the plant extracts was compared to a standard curve obtained by a serial dilution of trypsin. A standard solution of trypsin was used to plot a standard curve for each sample plate, thus the endopeptidase activity was expressed as units of trypsin equivalents. For each extract, the amount of soluble proteins in mg was determined by the Biuret method and the enzymatic activity was then expressed as specific activity i.e. Units/mg soluble proteins. Abscissa: time (days); ordinate: trypsin units/mg soluble protein.
The samples were collected at different development stages of plants, which were: […], 60 and 85 days after sowing. These samples were also analysed for determining the Bt content (as described in example 4). To this aim, the enzymatic activity was tested on crude freeze dried leaf extracts with two different assays: the Radial Diffusion Assay (RDA), in which a protein, such as the bovine gelatine, was used as a substrate to test the endopeptidase activity, and a photometric assay described in the next example, in which DL-BAPA was used as a substrate, to determine a general peptidase activity.
A powder aliquot, which represents each step of plant growth, of the treated and controls samples was extracted in two steps. The powder sample was extracted with buffer 0.1 M Tris-HCl pH 7.7 (1:20 w/v) using an Ultraturrax blender at 24,000×RPM for 2 min in a ice bath to avoid overheating. […] The clear supernatant was collected and filtrated with Whatman paper no 4. The pellet was further extracted with the same procedure, with the exception that in this case the extraction ratio was 1:10 (w/v). Finally, the supernatants of the two extractions processes were joined and then concentrated 4-5 times by centrifugation at 3,000×g at 15° C. for 2 hours, using suitable concentrators (Amicon Inc. Beverly, Mass.—USA), fitted with a membrane of 10 κD cut off.
For each extract, the amount of soluble proteins was determined by the Biuret method and the enzymatic activity was then expressed as specific activity i.e. Units/mg soluble proteins.
RDA was performed as described in Santarius, K. and Ryan, C., Anal. Biochem., 1977, 77: 1-9 in Petri dishes containing bovine gelatine as substrate, dispersed in agar gel. Each dish contained 5 wells of which 4 were filled with suitable aliquots of concentrated cotton extracts, whereas one was filled with a bovine β-trypsin as standard solution (0.2 U/ml). The dishes were covered and sealed with a plastic film to avoid evaporation and then incubated at 37° C. for 16 hours.
The enzymatic activity in the protein-agar gel produced a clear radial diffusion zone around each circular wells, due to the bovine gelatine proteolysis against an opaque background.
The trypsin equivalents were calculated by measuring the radii of the clear zones produced by the plant extracts and compared to a standard curve obtained by a serial dilution of trypsin. Each dish contained a standard solution of trypsin that was used to plot a standard curve for each plate, thus the endopeptidase activity was expressed as units of trypsin equivalents.
Each analysis was performed in quadruplicate. […] In table 6 are shown the differences between treated and untreated cotton samples as percentages.

On to `CCCCOCCOCCOCc1cc2c(cc1CCC)OCO2` [PBO, 5-[[2-(2-Butoxyethoxy)ethoxy]methyl]-6-propyl-1,3-benzodioxole], for which the “Difference % Treated minus untreated (endopeptidase, RDA)” value (“Difference % Treated minus untreated” below) (4 days after sowing) is on record as 9.15%; the “Difference % Treated minus untreated” value (35 days after sowing) is −5.35%; the “Difference % Treated minus untreated” value (60 days after sowing) is −39.31%; the “Difference % Treated minus untreated” value (85 days after sowing) is −16.42%. For the same compound, the “Endopeptidase activity, cv. V2i Bt PBO” value (4 days after sowing) was 5.90 U/mg protein; the “Endopeptidase activity, cv. V2i Bt PBO” value (35 days after sowing) turned out to be 8.04 U/mg protein; the “Endopeptidase activity, cv. V2i Bt PBO” value (60 days after sowing) is listed as 4.07 U/mg protein; the “Endopeptidase activity, cv. V2i Bt PBO” value (85 days after sowing) is given as 4.14 U/mg protein.
